Results published in US8394788B2, “Phenylsulfoxyoxazole compound inhibitors of urea transporters” (The Regents of the University of California, priority 2006, dated 2013).

Target: T1, UT-B (Homo sapiens, UniProt Q13336)
T1 sequence (Q13336 1-389): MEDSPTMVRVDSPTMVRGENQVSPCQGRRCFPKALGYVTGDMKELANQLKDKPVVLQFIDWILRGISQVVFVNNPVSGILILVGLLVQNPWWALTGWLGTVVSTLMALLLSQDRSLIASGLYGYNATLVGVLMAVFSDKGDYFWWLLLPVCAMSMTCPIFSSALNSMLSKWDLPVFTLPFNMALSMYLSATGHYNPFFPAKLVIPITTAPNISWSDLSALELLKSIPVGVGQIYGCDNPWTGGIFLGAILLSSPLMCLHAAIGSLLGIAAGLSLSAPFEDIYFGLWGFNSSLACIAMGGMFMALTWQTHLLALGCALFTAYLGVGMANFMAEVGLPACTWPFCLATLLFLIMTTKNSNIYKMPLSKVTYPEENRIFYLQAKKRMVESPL
Test: RBC lysis assay (human RBCs, acetamide-loaded)
Settings: not given

| EC50 | SMILES |
| --- | --- |
| 1 µM | O=S(=O)(c1ccc(Cl)cc1)c1nc(-c2ccccc2F)oc1NCc1ccccc1 [ureainh-120, N-benzyl-4-(4-chlorophenylsulfonyl)-2-(2-fluorophenyl)oxazol-5-amine] |
| 5 µM | CN(C)c1oc(-c2ccccc2Cl)nc1S(=O)(=O)c1ccccc1 [ureainh-123, 2-(2-chlorophenyl)-N,N-dimethyl-4-(phenylsulfonyl)oxazol-5-amine] |
| 7 µM | O=S(=O)(c1ccccc1)c1nc(-c2ccccc2F)oc1N1CCOCC1 [ureainh-124, 4-(2-(2-fluorophenyl)-4-(phenylsulfonyl)oxazol-5-yl)morpholine] |
| 2 µM | CSc1[nH]c(-c2ccc(C)cc2)nc1S(=O)(=O)c1ccccc1 [ureainh-130, 5-(methylthio)-4-(phenylsulfonyl)-2-p-tolyl-1H-imidazole] |
| 11 µM | Cc1ccc(S(=O)(=O)c2nc(-c3ccccc3Cl)oc2N2CCOCC2)cc1 [ureainh-125, 4-(2-(2-chlorophenyl)-4-tosyloxazol-5-yl)morpholine] |
| 0.1 µM | NC(=O)CSc1oc(-c2ccco2)nc1S(=O)(=O)c1ccc(Cl)cc1 [ureainh-117, 2-(4-(4-chlorophenylsulfonyl)-2-(furan-2-yl)oxazol-5-ylthio)acetamide] |
| 0.2 µM | NC(=O)CSc1oc(-c2ccco2)nc1S(=O)(=O)c1ccc(Br)cc1 [ureainh-118, 2-(4-(4-bromophenylsulfonyl)-2-(furan-2-yl)oxazol-5-ylthio)acetamide] |
| 7 µM | O=C(Sc1[nH]c(-c2ccccc2)nc1S(=O)(=O)c1ccccc1)c1ccccc1 [ureainh-132, S-2-phenyl-4-(phenylsulfonyl)-1H-imidazol-5-yl benzothioate] |
| 10 µM | COc1ccccc1-c1nc(S(=O)(=O)c2ccccc2)c(N2CCCCCC2)o1 [ureainh-126, 5-(azepan-1-yl)-2-(2-methoxyphenyl)-4-(phenylsulfonyl)oxazole] |
| 10 µM | Cc1ccc(-c2nc(S(=O)(=O)c3ccccc3)c(N3CCCCCC3)o2)cc1 [ureainh-127, 5-(azepan-1-yl)-4-(phenylsulfonyl)-2-p-tolyloxazole] |
| 4 µM | O=C(CSc1oc(-c2ccccc2)nc1S(=O)(=O)c1ccc(Br)cc1)NCc1ccco1 [ureainh-121, 2-(4-(4-bromophenylsulfonyl)-2-phenyloxazol-5-ylthio)-N-(furan-2-ylmethyl)acetamide] |
| 15 µM | O=C(CSc1oc(-c2ccccc2)nc1S(=O)(=O)c1ccc(Cl)cc1)NCc1ccco1 [ureainh-122, 2-(4-(4-chlorophenylsulfonyl)-2-phenyloxazol-5-ylthio)-N-(furan-2-ylmethyl)acetamide] |
| 1 µM | Cc1ccc(S(=O)(=O)c2nc(-c3ccco3)oc2SCC(N)=O)cc1 [ureainh-119, 2-(2-(furan-2-yl)-4-tosyloxazol-5-ylthio)acetamide] |
| 20 µM | CSc1oc(-c2ccco2)nc1S(=O)(=O)c1ccc(Cl)cc1 [ureainh-129, 4-(4-chlorophenylsulfonyl)-2-(furan-2-yl)-5-(methylthio)oxazole] |
| 10 µM | O=S(=O)(c1ccccc1)c1nc(-c2ccc(F)cc2)oc1N1CCCCCC1 [ureainh-128, 5-(azepan-1-yl)-2-(4-fluorophenyl)-4-(phenylsulfonyl)oxazole] |
| 6 µM | Cc1ccc(S(=O)(=O)c2nc(-c3ccccc3)[nH]c2S)cc1 [ureainh-131, 2-phenyl-4-tosyl-1H-imidazole-5-thiol] |

The remaining lines, values behind:

| SMILES | EC50 |
| --- | --- |
| NC(=O)CSc1oc(-c2ccc(F)cc2)nc1S(=O)(=O)c1ccccc1 [ureainh-108, 2-(2-(4-fluorophenyl)-4-(phenylsulfonyl)oxazol-5-ylthio)acetamide] | 15 µM |
| NC(=O)CSc1oc(-c2ccccc2)nc1S(=O)(=O)c1ccc(Cl)cc1 [ureainh-102, 2-(4-(4-chlorophenylsulfonyl)-2-phenyloxazol-5-ylthio)acetamide] | 0.04 µM |
| NC(=O)CSc1oc(-c2ccc(F)cc2)nc1S(=O)(=O)c1ccc(F)cc1 [ureainh-107, 2-(2-(4-fluorophenyl)-4-(4-fluorophenylsulfonyl)oxazol-5-ylthio)acetamide] | 6 µM |
| Cc1ccc(-c2nc(S(=O)(=O)c3ccccc3)c(SCC(N)=O)o2)cc1 [ureainh-112, 2-(4-(phenylsulfonyl)-2-p-tolyloxazol-5-ylthio)acetamide] | 15 µM |
| Cc1ccc(S(=O)(=O)c2nc(-c3cccs3)oc2SCC(N)=O)cc1 [ureainh-114, 2-(2-(thiophen-2-yl)-4-tosyloxazol-5-ylthio)acetamide] | 0.5 µM |
| Cc1ccc(S(=O)(=O)c2nc(-c3ccc(F)cc3)oc2SCC(N)=O)cc1 [ureainh-105, 2-(2-(4-fluorophenyl)-4-tosyloxazol-5-ylthio)acetamide] | 0.1 µM |
| NC(=O)CSc1oc(-c2cccs2)nc1S(=O)(=O)c1ccc(Cl)cc1 [ureainh-113, 2-(4-(4-chlorophenylsulfonyl)-2-(thiophen-2-yl)oxazol-5-ylthio)acetamide] | 0.02 µM |
| Cc1ccc(-c2nc(S(=O)(=O)c3ccc(Br)cc3)c(SCC(N)=O)o2)cc1 [ureainh-109, 2-(4-(4-bromophenylsulfonyl)-2-p-tolyloxazol-5-ylthio)acetamide] | 0.2 µM |
| NC(=O)CSc1oc(-c2cccs2)nc1S(=O)(=O)c1ccccc1 [ureainh-116, 2-(4-(phenylsulfonyl)-2-(thiophen-2-yl)oxazol-5-ylthio)acetamide] | 1 µM |
| Cc1ccc(-c2nc(S(=O)(=O)c3ccc(C)cc3)c(SCC(N)=O)o2)cc1 [ureainh-110, 2-(2-p-tolyl-4-tosyloxazol-5-ylthio)acetamide] | 1 µM |
| Cc1ccc(-c2nc(S(=O)(=O)c3ccc(Cl)cc3)c(SCC(N)=O)o2)cc1 [ureainh-111, 2-(4-(4-chlorophenylsulfonyl)-2-p-tolyloxazol-5-ylthio)acetamide] | 1 µM |
| Cc1ccc(S(=O)(=O)c2nc(-c3ccccc3)oc2SCC(N)=O)cc1 [ureainh-103, 2-(2-phenyl-4-tosyloxazol-5-ylthio)acetamide] | 0.1 µM |
| NC(=O)CSc1oc(-c2ccccc2)nc1S(=O)(=O)c1ccccc1 [ureainh-104, 2-(2-phenyl-4-(phenylsulfonyl)oxazol-5-ylthio)acetamide] | 1 µM |
| NC(=O)CSc1oc(-c2ccc(F)cc2)nc1S(=O)(=O)c1ccc(Cl)cc1 [ureainh-106, 2-(4-(4-chlorophenylsulfonyl)-2-(4-fluorophenyl)oxazol-5-ylthio)acetamide] | 0.2 µM |
| NC(=O)CSc1oc(-c2cccs2)nc1S(=O)(=O)c1ccc(F)cc1 [ureainh-115, 2-(4-(4-fluorophenylsulfonyl)-2-(thiophen-2-yl)oxazol-5-ylthio)acetamide] | 0.6 µM |

Test system: RBC urea transport
Test: not given
Settings: 23° C.; cited from earlier work

| SMILES | apparent affinity |
| --- | --- |
| NC(N)=O [urea] | approximately 200 mM |
| CNC(N)=O [N-methylurea] | approximately 100 mM |
